Laboratory results taken from publication PMC5218480 (PLoS ONE, 2017).

Test system: MV-4-11 cells
Experiment: Gene expression microarray analysis (Affymetrix PrimeView) and GSEA
Type: cell-based, human
Parameters: RFU PODN (11730768_x_at) / Fold change /veh PODN (11730768_x_at) / RFU LINC00158 (11744669_a_at) / Fold change /veh LINC00158 (11744669_a_at) / RFU DUSP10 (11751237_a_at) / Fold change /veh DUSP10 (11751237_a_at) / RFU ID3 (11757404_x_at) / Fold change /veh ID3 (11757404_x_at) / RFU PLEKHG5 (11737974_s_at) / Fold change /veh PLEKHG5 (11737974_s_at) / RFU LRRC4B (11730491_at) / Fold change /veh LRRC4B (11730491_at) / RFU GIMAP4 (11747438_a_at) / Fold change /veh GIMAP4 (11747438_a_at) / RFU KRT8 (11758183_x_at) / Fold change /veh KRT8 (11758183_x_at) / RFU CNN1 (11734310_a_at) / Fold change /veh CNN1 (11734310_a_at) / RFU VPS37D (11726825_at) / Fold change /veh VPS37D (11726825_at) / RFU C10orf10 (11716522_x_at) / Fold change /veh C10orf10 (11716522_x_at) / RFU KIR2DL2 /// KIR2DL4 /// KIR2DL5A /// KIR2DL5B /// KIR2DS1 /// KIR2DS2 /// KIR2DS3 /// KIR2DS4 /// KIR3DL3 /// KIR3DL3 /// KIR3DS1 (11738374_at) / Fold change /veh KIR2DL2 /// KIR2DL4 /// KIR2DL5A /// KIR2DL5B /// KIR2DS1 /// KIR2DS2 /// KIR2DS3 /// KIR2DS4 /// KIR3DL3 /// KIR3DL3 /// KIR3DS1 (11738374_at) / RFU C1QL1 (11718748_at) / Fold change /veh C1QL1 (11718748_at) / RFU TMPRSS4 (11747572_a_at) / Fold change /veh TMPRSS4 (11747572_a_at) / RFU HAMP (11756126_x_at) / Fold change /veh HAMP (11756126_x_at) / RFU RNFT2 (11725882_a_at) / Fold change /veh RNFT2 (11725882_a_at) / RFU NR4A2 (11747474_a_at) / Fold change /veh NR4A2 (11747474_a_at) / RFU ABCC12 (11746883_a_at) / Fold change /veh ABCC12 (11746883_a_at) / RFU TMEM136 (11760407_x_at) / Fold change /veh TMEM136 (11760407_x_at) / RFU CLDN22 /// WWC2 (11732394_at) / Fold change /veh CLDN22 /// WWC2 (11732394_at) / RFU HLA-DPB1 (11760878_x_at) / Fold change /veh HLA-DPB1 (11760878_x_at) / RFU SPINT1 (11716480_a_at) / Fold change /veh SPINT1 (11716480_a_at) / RFU GAP43 (11754022_s_at) / Fold change /veh GAP43 (11754022_s_at) / RFU A4GNT (11735810_at) / Fold change /veh A4GNT (11735810_at) / RFU PRB3 (11715151_x_at) / Fold change /veh PRB3 (11715151_x_at) / RFU TUBB4B (11761932_at) / Fold change /veh TUBB4B (11761932_at) / RFU CAPN14 (11732068_a_at) / Fold change /veh CAPN14 (11732068_a_at) / RFU TMCC2 (11721928_a_at) / Fold change /veh TMCC2 (11721928_a_at) / RFU IRGQ (11745062_a_at) / Fold change /veh IRGQ (11745062_a_at) / RFU FAM174B (11720279_a_at) / Fold change /veh FAM174B (11720279_a_at) / RFU TMPRSS4 (11748680_a_at) / Fold change /veh TMPRSS4 (11748680_a_at) / RFU FAM212B (11763350_a_at) / Fold change /veh FAM212B (11763350_a_at) / RFU PLEKHG5 (11743358_a_at) / Fold change /veh PLEKHG5 (11743358_a_at) / RFU ZSCAN30 (11745921_a_at) / Fold change /veh ZSCAN30 (11745921_a_at) / RFU CMKLR1 (11741424_a_at) / Fold change /veh CMKLR1 (11741424_a_at) / RFU LOC101060620 /// MAPK8IP1 (11723275_at) / Fold change /veh LOC101060620 /// MAPK8IP1 (11723275_at) / RFU SPTSSB (11747773_x_at) / Fold change /veh SPTSSB (11747773_x_at) / RFU PRSS12 (11739890_at) / Fold change /veh PRSS12 (11739890_at) / RFU BIN1 (11741810_x_at) / Fold change /veh BIN1 (11741810_x_at) / RFU WNT11 (11732464_a_at) / Fold change /veh WNT11 (11732464_a_at) / RFU C10orf10 (11716521_a_at) / Fold change /veh C10orf10 (11716521_a_at) / RFU C5orf56 (11738089_at) / Fold change /veh C5orf56 (11738089_at) / RFU CYB561 (11721691_x_at) / Fold change /veh CYB561 (11721691_x_at) / RFU ANKRD19P (11752326_a_at) / Fold change /veh ANKRD19P (11752326_a_at) / RFU OR2T12 /// OR2T33 /// OR2T8 (11738714_s_at) / Fold change /veh OR2T12 /// OR2T33 /// OR2T8 (11738714_s_at) / RFU VCAN (11748164_a_at) / Fold change /veh VCAN (11748164_a_at) / RFU JSRP1 (11732532_at) / Fold change /veh JSRP1 (11732532_at) / RFU KRTAP10-11 (11738290_x_at) / Fold change /veh KRTAP10-11 (11738290_x_at) / RFU MYO3A (11730013_a_at) / Fold change /veh MYO3A (11730013_a_at) / RFU EBF3 (11725865_a_at) / Fold change /veh EBF3 (11725865_a_at) / RFU CAMK2N1 (11719241_x_at) / Fold change /veh CAMK2N1 (11719241_x_at) / RFU C5orf56 (11738088_a_at) / Fold change /veh C5orf56 (11738088_a_at) / RFU OLFML3 (11715873_a_at) / Fold change /veh OLFML3 (11715873_a_at) / RFU LOC100653217 /// NTM (11731650_a_at) / Fold change /veh LOC100653217 /// NTM (11731650_a_at) / RFU MAPK11 (11762145_a_at) / Fold change /veh MAPK11 (11762145_a_at) / RFU FIZ1 (11724087_x_at) / Fold change /veh FIZ1 (11724087_x_at) / RFU OASL (11726364_x_at) / Fold change /veh OASL (11726364_x_at) / RFU SOX15 (11748057_x_at) / Fold change /veh SOX15 (11748057_x_at) / RFU CD79A (11719716_a_at) / Fold change /veh CD79A (11719716_a_at) / RFU HIST1H1D (11736915_at) / Fold change /veh HIST1H1D (11736915_at) / RFU CASKIN2 (11723855_a_at) / Fold change /veh CASKIN2 (11723855_a_at) / RFU LOC730098 (11760151_x_at) / Fold change /veh LOC730098 (11760151_x_at) / RFU OR4N2 (11742367_at) / Fold change /veh OR4N2 (11742367_at) / RFU PRRT2 (11749266_a_at) / Fold change /veh PRRT2 (11749266_a_at) / RFU SNX32 (11753110_a_at) / Fold change /veh SNX32 (11753110_a_at) / RFU CDHR5 (11726645_a_at) / Fold change /veh CDHR5 (11726645_a_at) / RFU RCAN1 (11760418_a_at) / Fold change /veh RCAN1 (11760418_a_at) / RFU FAM167A (11723789_a_at) / Fold change /veh FAM167A (11723789_a_at) / RFU FAM26E (11764081_at) / Fold change /veh FAM26E (11764081_at) / RFU ISYNA1 (11749810_s_at) / Fold change /veh ISYNA1 (11749810_s_at) / RFU ACY1 (11761880_at) / Fold change /veh ACY1 (11761880_at) / RFU 11764098_at / Fold change /veh 11764098_at / RFU SAMD14 (11745864_x_at) / Fold change /veh SAMD14 (11745864_x_at) / RFU NPB (11741838_a_at) / Fold change /veh NPB (11741838_a_at) / RFU TMPRSS6 (11731388_a_at) / Fold change /veh TMPRSS6 (11731388_a_at) / RFU KRTAP10-2 (11738614_at) / Fold change /veh KRTAP10-2 (11738614_at) / RFU ARHGAP8 /// PRR5-ARHGAP8 (11727945_x_at) / Fold change /veh ARHGAP8 /// PRR5-ARHGAP8 (11727945_x_at) / RFU KRTAP5-7 /// NADSYN1 (11734609_at) / Fold change /veh KRTAP5-7 /// NADSYN1 (11734609_at) / RFU RASL12 (11751679_a_at) / Fold change /veh RASL12 (11751679_a_at) / RFU CDKN2B (11736163_a_at) / Fold change /veh CDKN2B (11736163_a_at) / RFU PRF1 (11729649_at) / Fold change /veh PRF1 (11729649_at) / RFU, ZNF638 /// ZNF638-IT1 / Fold change vs veh, ZNF638 /// ZNF638-IT1 / RFU, PANK3 / Fold change vs veh, PANK3 / RFU, SH3YL1 / Fold change vs veh, SH3YL1 / RFU, ZEB2 / Fold change vs veh, ZEB2 / RFU, NRIP1 / Fold change vs veh, NRIP1 / RFU, PTTG1IP / Fold change vs veh, PTTG1IP / RFU, CAPN2 / Fold change vs veh, CAPN2 / RFU, MED14 / Fold change vs veh, MED14 / RFU, SNORA58 / Fold change vs veh, SNORA58 / RFU, C1orf63 / Fold change vs veh, C1orf63 / RFU, LRRFIP1 / Fold change vs veh, LRRFIP1 / RFU, NDUFAF7 / Fold change vs veh, NDUFAF7 / RFU, SLC12A2 / Fold change vs veh, SLC12A2 / RFU, IBTK / Fold change vs veh, IBTK / RFU, ESF1 / Fold change vs veh, ESF1 / Fold change vs veh, TMEM50B / RFU, TAOK1 / Fold change vs veh, TAOK1 / RFU, ACBD3 / Fold change vs veh, ACBD3 / RFU, TMA16 / Fold change vs veh, TMA16 / RFU, RWDD3 / Fold change vs veh, RWDD3 / RFU, BCAT1 / Fold change vs veh, BCAT1 / RFU, EDEM3 / Fold change vs veh, EDEM3 / RFU, TMEM33 / Fold change vs veh, TMEM33 / RFU, WDR75 / Fold change vs veh, WDR75 / RFU, AHCTF1 / Fold change vs veh, AHCTF1 / RFU, TFRC / Fold change vs veh, TFRC / RFU, ZDHHC17 / Fold change vs veh, ZDHHC17 / RFU, NOM1 / Fold change vs veh, NOM1 / RFU, ARL8B / Fold change vs veh, ARL8B / RFU, ZBTB11 / Fold change vs veh, ZBTB11 / RFU, TAMM41 / Fold change vs veh, TAMM41 / RFU, KIAA1704 /// LOC100996395 / Fold change vs veh, KIAA1704 /// LOC100996395 / RFU, ING1 / Fold change vs veh, ING1 / RFU, TRMT61B / Fold change vs veh, TRMT61B / RFU, FUBP3 / Fold change vs veh, FUBP3 / RFU, TP53 / Fold change vs veh, TP53 / RFU, TNKS2 / Fold change vs veh, TNKS2 / RFU, ZFP14 / Fold change vs veh, ZFP14 / RFU, ACTR2 / Fold change vs veh, ACTR2 / RFU, PPP3R1 / Fold change vs veh, PPP3R1 / RFU, PIK3R1 / Fold change vs veh, PIK3R1 / RFU, HNRNPA1 / Fold change vs veh, HNRNPA1 / RFU, RNF170 / Fold change vs veh, RNF170 / RFU, ZNF28 / Fold change vs veh, ZNF28 / RFU, RNGTT / Fold change vs veh, RNGTT / RFU, OGT / Fold change vs veh, OGT / RFU, BRD1 / Fold change vs veh, BRD1 / RFU, MARS / Fold change vs veh, MARS / RFU, ZNF655 / Fold change vs veh, ZNF655 / RFU, FAHD1 / Fold change vs veh, FAHD1 / RFU, BDP1 / Fold change vs veh, BDP1 / RFU, LRRCC1 / Fold change vs veh, LRRCC1 / RFU, ARID1A / Fold change vs veh, ARID1A / RFU, ZNF146 / Fold change vs veh, ZNF146 / RFU, ZNF330 / Fold change vs veh, ZNF330 / RFU, GPN3 / Fold change vs veh, GPN3 / RFU, C9orf123 / Fold change vs veh, C9orf123 / RFU, N4BP2L2 / Fold change vs veh, N4BP2L2 / RFU, ARFIP1 / Fold change vs veh, ARFIP1 / RFU, FAM179B / Fold change vs veh, FAM179B / RFU, BCL10 / Fold change vs veh, BCL10 / RFU, UHRF1BP1L / Fold change vs veh, UHRF1BP1L / RFU, BET1 / Fold change vs veh, BET1 / RFU, CNOT2 / Fold change vs veh, CNOT2 / RFU, ZNF268 / Fold change vs veh, ZNF268 / Fold change vs veh, ZNF507 / RFU, DGCR2 / Fold change vs veh, DGCR2 / RFU, WDSUB1 / Fold change vs veh, WDSUB1 / Fold change vs veh, HSP90B1 /// MIR3652 / RFU, ADSS / Fold change vs veh, ADSS / RFU, GK / Fold change vs veh, GK / RFU, ZNF148 / Fold change vs veh, ZNF148 / RFU, TAF9 / Fold change vs veh, TAF9 / RFU, SLC1A5 / Fold change vs veh, SLC1A5 / RFU, SLMO2 / Fold change vs veh, SLMO2 / RFU, ABCC4 / Fold change vs veh, ABCC4 / RFU, LOC101060439 /// RAP1B / Fold change vs veh, LOC101060439 /// RAP1B / RFU, RFX7 / Fold change vs veh, RFX7 / RFU, GTPBP10 / Fold change vs veh, GTPBP10 / RFU, CNEP1R1 / Fold change vs veh, CNEP1R1 / RFU, BIVM-ERCC5 /// ERCC5 / Fold change vs veh, BIVM-ERCC5 /// ERCC5 / RFU, ILF3 / Fold change vs veh, ILF3 / RFU 11762660_at / Fold change /veh 11762660_at / RFU VCAN (11757783_s_at) / Fold change /veh VCAN (11757783_s_at) / RFU DDX43 (11728927_at) / Fold change /veh DDX43 (11728927_at) / RFU KRT8 (11758188_x_at) / Fold change /veh KRT8 (11758188_x_at) / RFU NKD1 (11759106_at) / Fold change /veh NKD1 (11759106_at) / RFU SRD5A1 (11742802_a_at) / Fold change /veh SRD5A1 (11742802_a_at) / RFU TPSAB1 /// TPSB2 (11721975_s_at) / Fold change /veh TPSAB1 /// TPSB2 (11721975_s_at) / RFU GSTM3 (11746129_a_at) / Fold change /veh GSTM3 (11746129_a_at) / RFU IL23R (11737362_x_at) / Fold change /veh IL23R (11737362_x_at) / RFU TMEM51 (11727254_a_at) / Fold change /veh TMEM51 (11727254_a_at) / RFU PIWIL2 (11732686_x_at) / Fold change /veh PIWIL2 (11732686_x_at) / RFU ORM1 (11744905_x_at) / Fold change /veh ORM1 (11744905_x_at) / RFU CCDC152 (11743942_at) / Fold change /veh CCDC152 (11743942_at) / RFU ECM1 (11717891_a_at) / Fold change /veh ECM1 (11717891_a_at) / RFU IL23R (11748794_a_at) / Fold change /veh IL23R (11748794_a_at) / RFU TNFAIP8L3 (11732012_x_at) / Fold change /veh TNFAIP8L3 (11732012_x_at) / RFU MBOAT4 (11741988_at) / Fold change /veh MBOAT4 (11741988_at) / RFU 11764193_at / Fold change /veh 11764193_at / RFU TMEM53 (11763286_at) / Fold change /veh TMEM53 (11763286_at) / RFU MAGEB2 (11727129_at) / Fold change /veh MAGEB2 (11727129_at) / RFU TMEM200A (11744735_a_at) / Fold change /veh TMEM200A (11744735_a_at) / RFU CCDC152 (11751479_a_at) / Fold change /veh CCDC152 (11751479_a_at) / RFU FAM211A (11726209_a_at) / Fold change /veh FAM211A (11726209_a_at) / RFU RGS16 (11746705_a_at) / Fold change /veh RGS16 (11746705_a_at) / RFU VCAN (11755009_s_at) / Fold change /veh VCAN (11755009_s_at) / RFU RHOB (11743442_s_at) / Fold change /veh RHOB (11743442_s_at) / RFU RGS16 (11720943_a_at) / Fold change /veh RGS16 (11720943_a_at) / RFU RGS16 (11720944_at) / Fold change /veh RGS16 (11720944_at) / RFU, VPS4B / Fold change vs veh, VPS4B / RFU, CREB1 / Fold change vs veh, CREB1 / RFU, DNAJC13 / Fold change vs veh, DNAJC13 / RFU, GNAQ / Fold change vs veh, GNAQ / RFU, CDK5R1 / Fold change vs veh, CDK5R1 / RFU, ZRANB3 / Fold change vs veh, ZRANB3 / RFU, CUL4A / Fold change vs veh, CUL4A / RFU, CCNY / Fold change vs veh, CCNY / RFU, UFL1 / Fold change vs veh, UFL1 / RFU, COG3 / Fold change vs veh, COG3 / RFU, DIAPH2 / Fold change vs veh, DIAPH2 / RFU, SKA2 / Fold change vs veh, SKA2 / RFU, AFF3 / Fold change vs veh, AFF3 / RFU, LMF1 / Fold change vs veh, LMF1 / RFU, IPO11 / Fold change vs veh, IPO11 / RFU, DFFB / Fold change vs veh, DFFB / RFU, FOXP1 / Fold change vs veh, FOXP1 / RFU, CARD8 / Fold change vs veh, CARD8 / RFU, STRN3 / Fold change vs veh, STRN3 / RFU, ADK / Fold change vs veh, ADK / RFU, RASSF2 / Fold change vs veh, RASSF2 / RFU, WIPF1 / Fold change vs veh, WIPF1 / RFU, LARP1B / Fold change vs veh, LARP1B / RFU, RASA1 / Fold change vs veh, RASA1 / RFU, RB1 / Fold change vs veh, RB1 / RFU, PPFIA1 / Fold change vs veh, PPFIA1 / RFU, MAT2A / Fold change vs veh, MAT2A / RFU, CCT5 / Fold change vs veh, CCT5 / RFU, WDR92 / Fold change vs veh, WDR92 / RFU, CUX1 / Fold change vs veh, CUX1 / RFU, TTC7A / Fold change vs veh, TTC7A / RFU, TMEM135 / Fold change vs veh, TMEM135 / RFU, DEPTOR / Fold change vs veh, DEPTOR / RFU, CPM / Fold change vs veh, CPM / RFU, DNAJB6 / Fold change vs veh, DNAJB6 / RFU, CACNA2D3 / Fold change vs veh, CACNA2D3 / RFU, DTX4 / Fold change vs veh, DTX4 / RFU, TFCP2 / Fold change vs veh, TFCP2 / RFU, GMCL1 /// GMCL1P1 / Fold change vs veh, GMCL1 /// GMCL1P1 / RFU, AEBP2 / Fold change vs veh, AEBP2 / RFU, SNHG1 /// SNORD22 /// SNORD25 /// SNORD26 /// SNORD27 /// SNORD28 /// SNORD29 /// SNORD31 / Fold change vs veh, SNHG1 /// SNORD22 /// SNORD25 /// SNORD26 /// SNORD27 /// SNORD28 /// SNORD29 /// SNORD31 / Fold change (Aza/veh), C12orf56 (ProbeSet 11735607_a_at) / Fold change (ACY-1035/veh), C12orf56 (ProbeSet 11735607_a_at) / Fold change (Aza/veh), FGFR1OP (ProbeSet 11751329_s_at) / Fold change (ACY-1035/veh), FGFR1OP (ProbeSet 11751329_s_at) / Fold change (Aza/veh), VPS36 (ProbeSet 11739960_a_at) / Fold change (ACY-1035/veh), VPS36 (ProbeSet 11739960_a_at) / RFU SYPL1 (11715823_x_at) / Fold change /veh SYPL1 (11715823_x_at) / RFU IGFBP7 (11715501_s_at) / Fold change /veh IGFBP7 (11715501_s_at) / RFU REEP3 (11722064_at) / Fold change /veh REEP3 (11722064_at) / RFU IGLL1 (11728026_x_at) / Fold change /veh IGLL1 (11728026_x_at): dose or concentration left out as unconfirmed
Conditions: MV-4-11 cells, 48 hours

## Nc1ccc(-c2cccs2)cc1NC(=O)c1ccc2c(c1)cc(C1CC1)n2CCN1CCOCC1 [ACY-1035]
  Fold change /veh CDKN2B (11736163_a_at): 1.20
